In US12433861B2, “Compositions and methods for treating reperfusion injury or hemorrhage after recanalization therapy” (GNT Pharma Co., Ltd., priority 2020, dated 2025):

Legend:
[1] = tested on: adult rats treated with rt-PA after 3-h tMCAO; assay: rt-PA-induced hemorrhagic transformation following 3-h occlusion of middle cerebral artery (tMCAO); assay type: in vivo, rat; details: for hemorrhage / hemorrhagic transformation in the brain: 10 mg/kg rt-PA IV plus 30 mg/kg IV after reperfusion, 3-h tMCAO, 24 h, potassium salt
Experimental: Male Sprague-Dawley rats (300-350 g; 15-16 animals/group) were anesthetized with chloral hydrate (400 mg/kg, IP) and the anesthesia was sustained for about 1.5 h during the procedure. The rectal temperature was recorded and maintained at 37.0-37.5° C. using a rectal probe and homoeothermic blanket controlled by a temperature control unit (Letica Scientific Instruments). Occlusion of the MCA was done according to the previous report (Gwag et al., 2007). Briefly, the right common carotid artery, external carotid artery (ECA), and internal carotid artery (ICA) were exposed. A length of 4-0 monofilament nylon suture (17 mm, pre-coated with silicone) with its tip rounded by heating near a flame was advanced from the lumen of the ICA until it blocked the origin of the middle cerebral artery (MCA). The suture remained for 3 h and was withdrawn for reperfusion. After 24 h, the brain was removed immediately, placed in the fixative for 15 min, and used for further analysis.
Animals received transient focal cerebral ischemia for 3 h as described above with intravenous administration of 10 mg/kg rt-PA or 10 mg/kg rt-PA plus 30 mg/kg nelonemdazK after reperfusion. rt-PA (10 mg/kg) dissolved in water for injection ([…]) was injected through femoral vein over 20 min from 5 min after reperfusion. NelonemdazK (30 mg/kg) dissolved in saline (6 mg/mL; 5 mL/kg) was injected through femoral vein over 5 min immediately after the end of rt-PA infusion.

normal adult rats = assay: rt-PA-induced hemorrhagic transformation model (intracortical rt-PA) in normal adult rats: Evans blue extravasation and infarct volume; assay type: in vivo, rat; details: intracortical 0.66 mg/kg rt-PA
Experimental: Male Sprague-Dawley rats (340-380 g) were anesthetized with chloral hydrate (400 mg/kg, IP). The animals received intracortical injection of rt-PA (0.66 mg/kg; total […]) coordinated with 2.6 mm posterior, 5.4 mm lateral, and 3.8 mm from bregma at a flow rate of 0.5 μL/min using a infusion pump and Hamilton syringe. After the end of infusion, the syringe was removed from the cortex and nelonemdazK (30 mg/kg) was administrated through femoral vein for 5 min (3 mg/mL; 10 mL/kg). Six hours later, the rats were anesthetized and intravenously administrated with 4% Evans blue solution. Twenty minutes later, the rats were perfused transcardially first with saline and next with 4% paraformaldehyde. The brain was removed immediately and placed in the fixative for 15 min and scanned for evaluation of extravasation area of Evans blue to indirectly measure rt-PA-induced hemorrhagic transformation which occurs as a result of the breakdown of the blood-brain barrier (Jiang et al., 2018). To evaluate brain damage volume, the brain tissues were stored in 4% paraformaldehyde for 3 days and then processed overnight for paraffin embedding and cresyl violet staining. The extravasation area was measured by TINA imaging system (KAIST, Korea).
Animals received the intracortical injection of 0.66 mg/kg rt-PA that was followed by subsequent IV administration of vehicle or 30 mg/kg nelonemdazK 5 min later. Hemorrhagic transformation was investigated by analyzing extravasation of Evans blue dye at 6 h after rt-PA. (Upper panel) Compared to the sham control group, administration of rt-PA produced hemorrhagic transformation evident by extravasation of Evans blue, which was prevented by subsequent treatment with nelonemdazK.
Animals received sham operation or the intracortical injection of 0.66 mg/kg rt-PA, alone or with the subsequent intravenous administration of vehicle or 30 mg/kg nelonemdazK. Animals were sacrificed 6 h later and infarct volume was analyzed after staining brain sections with cresyl violet. (Upper panel) Photographs of brain sections stained with cresyl violet. Note brain lesion following the intracortical injections of rt-PA that was prevented by the administration of nelonemdazK. (Lower panel) Quantitation of infarct volume (Mean±S.E.M., n=3 for sham and 6 for rt-PA-treated groups) by summation of lesion areas in brain sections.

O=C([O-])c1cc(NCc2c(F)c(F)c(C(F)(F)F)c(F)c2F)ccc1O.[K+] [nelonemdazK, 2-Hydroxy-5-(2,3,5,6-tetrafluoro-4-trifluoromethylbenzylamino)benzoic acid potassium salt]
rate of hemorrhagic transformation ([1]; 10 mg/kg rt-PA IV plus 30 mg/kg IV after 3-h tMCAO, p<0.05 Fisher's exact test): significantly reduced | hemorrhage / hemorrhagic transformation in the brain ([1]; listed as NelonemdazK): prevented hemorrhage | hemorrhage / hemorrhagic transformation in the brain [1]: prevents hemorrhagic transformation | hemorrhagic transformation evident by extravasation of Evans blue (normal adult rats; 30 mg/kg IV 5 min later, 6 h after rt-PA): prevented | brain lesion (cresyl violet) (normal adult rats; 30 mg/kg IV, 6 h): prevented | volume of Evans blue extravasation (normal adult rats; 30 mg/kg IV, 6 h, vs vehicle, p<0.05): significantly reduced | infarct volume (normal adult rats; 30 mg/kg IV, 6 h after rt-PA, vs vehicle): significantly reduced
